Assay results reported in US7767210B2, “RNA virus vaccines and methods” (priority 2005, dated 2010).
pIC50: −log10 of the molar value.

Key:
NY-99 strain of WNV = test: MB + light inactivation of WNV, plaque assay on Vero cells; assay type: cell-based, West Nile Virus; conditions: MB above 2 μM and light; data not shown; stated as 'held true' for this strain
Protocol: (§1) MB inactivation of West Nile Virus. 1 ml aliquots of WNV at a concentration of 10^7 pfu were mixed with MB (SIGMA INC.) to achieve the desired final concentration of MB in the reaction mixture. Mixtures were incubated for 20 minutes in the dark at room temperature and then subsequently for 10 minutes at 10 cm distance from a 40 watt fluorescent white culture hood light at room temperature. Samples were then diluted to the desired concentration of WNV for plaque assay. Inactivated virus was prepared fresh for each assay and never kept for longer than 2 hours at 4° C. before use. It is contemplated that other RNA viruses as described herein can be similarly treated for vaccine formation.
(§2) Plaque Assays. Five-fold serial dilutions of WNV strains either mock-treated or treated with MB were placed onto Vero cell monolayers cultured in either 6-well plates or T25 culture flasks (GREINER INC.). Virus aliquots were allowed to attach to the cells for 1 hour at normal cell culture conditions. After one hour the virus was aspirated from the cells. The monolayers were washed twice with phosphate-buffer saline (PBS) and overlayed with 2 ml or 5 ml (6-well or T25, respectively) of 1% methylcellulose (SIGMA INC.) medium supplemented with 2% calf serum. Cells were incubated for 5 days. Afterwards the methylcellulose was removed, the monolayers were washed once with PBS and fixed with 100% ice-cold methanol for 5 minutes. The monolayers were subsequently stained with 0.5% Giemsa stain (SIGMA INC.) and plaques counted using a MZ12 dissecting microscope (LEICA INC., Germany).
(§3) As a member of the Flaviviridae family of viruses, WNV utilizes a RNA dependent RNA polymerase for replication. This process is relatively error prone and can lead to the creation of multiple strains. To test the ability of MB to inactivate multiple WNV strains, MB was tested against multiple strains of WNV, including OK02, OK03 and NY-99 (the 1999 prototype virus NY-99 and the more recent Oklahoma isolates from 2002 and 2003). 5×10^3 pfu of OK03 WNV was incubated with 2 μM MB and light. […]

OK02 strain of WNV = test: as above; assay type: cell-based, West Nile Virus; conditions: MB above 2 μM and light; FIG. 2 panel A
Protocol: as §1, §2, §3

OK03 strain of WNV = test: as above; assay type: cell-based, West Nile Virus; conditions: MB above 2 μM and light; FIG. 2 panel B; stated as 'held true' for this strain
Protocol: as §1, §2, §3

WNV [1] = test: MB photoinactivation of WNV in tissue culture (strain not stated); assay type: cell-based, West Nile Virus
Protocol: as §1
as §2, with “Cells were incubated for 5 days. Afterwards the methylcellulose was removed, the monolayers were washed once with PBS and fixed with 100% ice-cold methanol for 5 minutes.” left out

WNV strain OK02 = test: Safety of MB-treated WNV in immunocompetent mice (i.p. injection, survival); assay type: in vivo, BalbC/j mice; conditions: virus treated with MB+light, doses of 10^3 and 10^4 pfu per animal
WNV [2] = test: Safety of MB-treated WNV in immunodeficient mice (i.p. injection, survival); assay type: in vivo, C.B. 17-SCID mice; conditions: 20 μM MB; conclusion from BalbC/j and SCID mice
[3] = cited from earlier work

With `CN(C)c1ccc2nc3ccc(N(C)C)cc3[s+]c2c1.[Cl-]` [MB, 3,7-Bis(dimethylamino)phenothiazin-5-ium chloride] the “reduction of viral activity” value (NY-99 strain of WNV) was ≥ 10^3, the “reduction of viral activity” value (OK02 strain of WNV) was ≥ 10^3 and the “reduction of viral activity” value (OK03 strain of WNV) was ≥ 10^3. The “reduction of virus titer” value (WNV [1]; 20 μM MB + light) was 10^7 pfu, the pIC50 (WNV [1]; West Nile virus, MB + light, tissue culture, read-out: IC50 of MB+light inactivation of WNV) was 7.00 and the “WNV-associated morbidity and mortality” value (WNV strain OK02) was “completely block-associated morbidity and mortality”. For the same compound, the “effect on WNV-associated morbidity and mortality in vivo” value (WNV [2]) was “can stop WNV-associated morbidity and mortality”, the oral absorption ([3]; DiSanto and Wagner 1972) was “absorbed orally” and the concentration in blood ([3]; oral 100 mg/kg twice daily (Naylor et al., 1986)) was roughly 50 µM. For the same compound, the half-life ([3]; oral (DiSanto and Wagner 1972)) was “about 10 h” and the “side effects on long-term oral use” value ([3]; oral, up to 19 months at 100 mg/kg twice daily (Naylor et al., 1986)) was “no reported side effects”.
